Assay results as given in patent US10562891B2, “Quinazolinones as PARP14 inhibitors” (Ribon Therapeutics Inc., priority 2017, dated 2020).
pIC50: −log10 of the molar value. Where a name gives a salt, the structure may show the parent alone.

These compounds were tested against catalytic domain of human PARP14 (Homo sapiens (Human), UniProt Q460N5) (assay: Enzymatic assay for inhibition of PARP14 (DELFIA, auto-modification with biotin-NAD)). Settings: auto-modification of PARP14 by biotin-NAD, 50 nM PARP14, 3 μM biotin-NAD.
catalytic domain of human PARP14, sequence (Q460N5 1611-1801): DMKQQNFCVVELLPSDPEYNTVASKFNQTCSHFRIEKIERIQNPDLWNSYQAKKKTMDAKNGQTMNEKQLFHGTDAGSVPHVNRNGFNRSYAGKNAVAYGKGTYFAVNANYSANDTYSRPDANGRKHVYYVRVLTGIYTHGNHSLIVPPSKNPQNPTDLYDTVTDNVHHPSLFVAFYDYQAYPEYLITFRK
Assay type: biochemical
Method: An N-terminal His-TEV fusion tag was used to purify the protein from cell lysates. The His-TEV tag was left on the protein for use in the enzymatic assay.
Enzymatic inhibition of PARP14 was measured using a dissociation-enhanced lanthanide fluorescence immunoassay (DELFIA) monitoring the auto-modification of PARP14 by biotinylated nicotinamide adenine dinucleotide (biotin-NAD). 1 μL of a dose response curve of each test compound was spotted in 384-well nickel-coated white microplates (Thermo) using a Mosquito (TTP Labtech). Reactions were performed in a 50 μL volume by adding 40 μL of PARP14 in assay buffer (20 mM HEPES pH==8, 100 mM NaCl, 0.1% bovine serum albumin, 2 mM DTT and 0.002%0 Tween20), incubating with test compound at 25° C. for 30 min, then adding 10 μL of biotin-NAD (Biolog). The final concentrations of PARP14 and biotin-NAD are 50 nM and 3 μM, respectively. Reactions proceeded at 25° C. for 3 h, then were quenched with 5 μL of 10 mM unmodified nicotinamide adenine dinucleotide (Sigma-Aldrich). The quenched reactions were washed 3 times with 100 μL of TBST wash buffer (50 mM Tris-HCl, 150 mM NaCl and 0.1% Tween20). Next, to the washed and dried plate was added 25 μL of DELFIA Europium-N1 streptavidin (Perkin Elmer) diluted in DELFIA assay buffer (Perkin Elmer). After a 30 min incubation at 25° C., the plate was washed 5 times with TBST wash buffer. Finally, 25 μL of DELFIA enhancement solution was added. After a 5 min incubation the plate was read on an Envision platereader equipped with a LANCE/DELFIA top mirror (Perkin Elmer) using excitation of 340 nm and emission of 615 nm to measure the amount of Europium present in each well, informing on the amount of biotin-NAD that was transferred in the automodification reaction.
[formula] where ex615cmpd is the emission from the compound treated well, ex615min is the emission from the rucaparib treated positive control well and ex615max is the emission from the DMSO treated negative control well.
The % inhibition values were plotted as a function of compound concentration and the following 4-parameter fit was applied to derive the IC50 values:
[formula] where top and bottom are normally allowed to float, but may be fixed at 100 or 0 respectively in a 3-parameter fit. The Hill Coefficient is normally allowed to float but may also be fixed at 1 in a 3-parameter fit. Y is the % inhibition and X is the compound concentration.

Structure (SMILES)	pIC50
CC(=O)Nc1cccc(CN2CCC(SCc3nc4c(C)cccc4c(=O)[nH]3)CC2)c1 [Example 150, N-(3-((4-(((8-Methyl-4-oxo-3,4-dihydroquinazolin-2-yl)methyl)thio)piperidin-1-yl)methyl)phenyl)acetamide trifluoroacetate]	5.00 to 6.00
O=c1[nH]c(CS[C@@H]2CCNC[C@H]2F)nc2cc(NC3CCCC3)cc(F)c12 [Example 211b, 7-(Cyclopentylamino)-5-fluoro-2-((((3R,4R)-3-fluoropiperidin-4-yl)thio)methyl)quinazolin-4(3H)-one]	> 6.00
O=c1[nH]c(CS[C@H]2CCN[C@@H](C(F)(F)F)C2)nc2cc(NC3CCCC3)cc(F)c12 (relative stereo) [Example 228, 7-(Cyclopentylamino)-5-fluoro-2-(((cis-2-(trifluoromethyl)piperidin-4-yl)thio)methyl)quinazolin-4(3H)-one hydrochloride]	5.00 to 6.00
CC(Nc1cc2nc(CSC3CCOCC3)[nH]c(=O)c2c(F)c1F)C1CCOCC1 (stereo not shown) [Example 400]	< 5.00
N#Cc1cccc2c(=O)[nH]c(CSC3CCOCC3)nc12 [Example 28, 4-Oxo-2-(((tetrahydro-2H-pyran-4-yl)thio)methyl)-3,4-dihydroquinazoline-8-carbonitrile]	< 5.00
CC(C)COc1cc(F)c2c(=O)[nH]c(CSC3CCOCC3)nc2c1 [Example 306, 5-Fluoro-7-isobutoxy-2-(((tetrahydro-2H-pyran-4-yl)thio)methyl)quinazolin-4(3H)-one]	5.00 to 6.00
O=c1[nH]c(CS[C@H]2CC[C@@H](O)CC2)nc2cc(Nc3ccccc3)ccc12 [Example 99, 2-(((cis-4-Hydroxycyclohexyl)thio)methyl)-7-(phenylamino)quinazolin-4(3H)-one]	5.00 to 6.00
CN1CCN(c2ccc3c(=O)[nH]c(CSC4CCOCC4)nc3c2)CC1 [Example 112, 7-(4-Methylpiperazin-1-yl)-2-(((tetrahydro-2H-pyran-4-yl)thio)methyl)quinazolin-4(3H)-one]	5.00 to 6.00
COc1cc(NC2CCCC2)cc2nc(CSC3CCOCC3)[nH]c(=O)c12 [Example 207, 7-(Cyclopentylamino)-5-methoxy-2-(((tetrahydro-2H-pyran-4-yl)thio)methyl)quinazolin-4(3H)-one]	< 5.00
Cc1cccc2c(=O)[nH]c(CS[C@H]3CC[C@@H](CO)CC3)nc12 [Example 63, 2-(((cis-4-(Hydroxymethyl)cyclohexyl)thio)methyl)-8-methylquinazolin-4(3H)-one]	5.00 to 6.00
Cc1nccc2c(=O)[nH]c(CSC3CCOCC3)nc12 [Example 42, 8-Methyl-2-(((tetrahydro-2H-pyran-4-yl)thio)methyl)pyrido[3,4-d]pyrimidin-4(3H)-one]	< 5.00
Cc1cccc2c(=O)[nH]c(CSC3CCN(C)C3)nc12 (stereo not shown) [Example 16, 8-Methyl-2-(((1-methylpyrrolidin-3-yl)thio)methyl)quinazolin-4(3H)-one]	5.00 to 6.00
COc1cc2c(=O)[nH]c(CSC3CCNCC3)nc2cc1NCC1CCC1 [Example 230, 7-((Cyclobutylmethyl)amino)-6-methoxy-2-((piperidin-4-ylthio)methyl)quinazolin-4(3H)-one Hydrochloride]	5.00 to 6.00
O=c1[nH]c(CSC2CCOCC2)nc2cc(NC3CCOCC3)ccc12 [Example 114, 7-((Tetrahydro-2H-pyran-4-yl)amino)-2-(((tetrahydro-2H-pyran-4-yl)thio)methyl)quinazolin-4(3H)-one]	5.00 to 6.00
Cc1cccc2c(=O)[nH]c(CS(=O)(=O)C3CCOCC3)nc12 [Example 19, 8-Methyl-2-(((tetrahydro-2H-pyran-4-yl)sulfonyl)methyl)quinazolin-4(3H)-one]	< 5.00

The remaining lines, values ahead:

pIC50	Structure (SMILES)
> 6.00	O=c1[nH]c(CSC2CCOCC2)nc2cc(NC3CCCC3(F)F)cc(F)c12 (stereo not shown) [Example 231, 7-((2,2-Difluorocyclopentyl)amino)-5-fluoro-2-(((tetrahydro-2H-pyran-4-yl)thio)methyl)quinazolin-4(3H)-one]
> 6.00	O=c1[nH]c(CSC2CCOCC2)nc2cc(N[C@@H]3CCCOC3)c(F)c(F)c12 [Example 348]
> 6.00	C[C@]1(O)CC[C@@H](SCc2nc3cc(OCC4CCOCC4)cc(F)c3c(=O)[nH]2)CC1 [Example 411]
> 6.00	O=c1[nH]c(CSC2CCN(C3CS(=O)(=O)C3)CC2)nc2cc(NC3CCCC3)cc(F)c12 [Example 273, 7-(Cyclopentylamino)-2-(((1-(1,1-dioxidothietan-3-yl)piperidin-4-yl)thio)methyl)-5-fluoroquinazolin-4(3H)-one]
5.00 to 6.00	COc1ccc(Nc2ccc3c(=O)[nH]c(CSC4CCOCC4)nc3c2)cc1 [Example 82, 7-((4-Methoxyphenyl)amino)-2-(((tetrahydro-2H-pyran-4-yl)thio)methyl)quinazolin-4(3H)-one]
> 6.00	O=c1[nH]c(CS[C@H]2CC[C@@H](CO)CC2)nc2cc(Nc3ccccc3)ccc12 [Example 105, 2-(((cis-4-(Hydroxymethyl)cyclohexyl)thio)methyl)-7-(phenylamino) quinazolin-4(3H)-one]
> 6.00	O=c1[nH]c(CSC2CCOCC2)nc2cc(OCC3CCN(CC(F)F)CC3)cc(F)c12 [Example 300, 7-((1-(2,2-Difluoroethyl)piperidin-4-yl)methoxy)-5-fluoro-2-(((tetrahydro-2H-pyran-4-yl)thio)methyl)quinazolin-4(3H)-one]
> 6.00	CC(F)(F)CN1CCC(COc2cc(F)c3c(=O)[nH]c(CSC4CCOCC4)nc3c2)CC1 [Example 299, 7-((1-(2,2-Difluoropropyl)piperidin-4-yl)methoxy)-5-fluoro-2-(((tetrahydro-2H-pyran-4-yl)thio)methyl)quinazolin-4(3H)-one]
> 6.00	O=c1[nH]c(CSC2CCOCC2)nc2cc(OCC3CCN(CCC(F)(F)F)CC3)cc(F)c12 [Example 298, 5-Fluoro-2-(((tetrahydro-2H-pyran-4-yl)thio)methyl)-7-((1-(3,3,3-trifluoropropyl)piperidin-4-yl)methoxy)quinazolin-4(3H)-one]
> 6.00	CN1CC[C@H](COc2cc(F)c3c(=O)[nH]c(CSC4CCOCC4)nc3c2)[C@@H](F)C1 (relative stereo) [Example 326, 5-Fluoro-7-(((trans)-3-fluoro-1-methylpiperidin-4-yl)methoxy)-2-(((tetrahydro-2H-pyran-4-yl)thio)methyl)quinazolin-4(3H)-one]
> 6.00	O=c1[nH]c(CS[C@H]2CC[C@H](O)CC2)nc2cc(NC3CCCC3(F)F)cc(F)c12 (stereo partly shown) [Example 350]
> 6.00	Cc1ccc(C(F)(F)F)c2c(=O)[nH]c(CS[C@H]3CC[C@@H](O)CC3)nc12 [Example 61, 2-(((cis-4-Hydroxycyclohexyl)thio)methyl)-8-methyl-5-(trifluoromethyl) quinazolin-4(3H)-one]
> 6.00	O=c1[nH]c(CS[C@H]2CCNC[C@H]2F)nc2cc(NCC3CCC3)c(F)cc12 (relative stereo) [Example 303, 7-((Cyclobutylmethyl)amino)-6-fluoro-2-(((cis-3-fluoropiperidin-4-yl)thio)methyl)quinazolin-4(3H)-one hydrochloride]
> 6.00	CN1CC[C@@H](COc2cc(F)c3c(=O)[nH]c(CS[C@H]4CC[C@H](O)CC4)nc3c2)[C@H](F)C1 [Example 335a, 5-fluoro-7-(((3S,4S)-3-fluoro-1-methylpiperidin-4-yl)methoxy)-2-((((trans)-4-hydroxycyclohexyl)thio)methyl)quinazolin-4(3H)-one]
> 6.00	O=c1[nH]c(CSC2CCOCC2)nc2cc(NC3CCN(CC(F)(F)F)CC3)cc(F)c12 [Example 288, 5-Fluoro-2-(((tetrahydro-2H-pyran-4-yl)thio)methyl)-7-((1-(2,2,2-trifluoroethyl)piperidin-4-yl)amino)quinazolin-4(3H)-one]
> 6.00	Cc1cccc2c(=O)[nH]c(CS[C@H]3CC[C@H](C(N)=O)CC3)nc12 [Example 205, trans-4-(((8-Methyl-4-oxo-3,4-dihydroquinazolin-2-yl)methyl)thio)cyclohexane-1-carboxamide]
> 6.00	CN1CC[C@H](CNc2cc3nc(CSC4CCOCC4)[nH]c(=O)c3c(F)c2F)[C@@H](F)C1 [Example 425]
> 6.00	CC(=O)NC1(C)CCC(SCc2nc3cc(OCC4CC4)cc(F)c3c(=O)[nH]2)CC1 (stereo not shown) [Example 380]
> 6.00	O=C(CO)N1CCC(SCc2nc3cc(NC4CCCC4)cc(F)c3c(=O)[nH]2)CC1 [Example 214, 7-(Cyclopentylamino)-5-fluoro-2-(((1-(2-hydroxyacetyl)piperidin-4-yl)thio)methyl)quinazolin-4(3H)-one]
